According to patent US20230219965A1 (KSQ Therapeutics, Inc., priority 2020, published 2023):
Where two headings read alike, the source gives them in different places.

How the values were obtained:
[1] = tested on: Ub-PCNA levels in the nucleus of ES2 cells (USP1 activity); assay: ES2 Ub-PCNA immunofluorescence (IF) assay; format: cell-based; conditions: Homo sapiens, ES-2; ES2 cells, 3 hours, Ub-PCNA immunofluorescence; read-out: USP1 IC50 (Ub-PCNA)
Procedure, shortened: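 AC50 derived from percent Ub-PCNA-positive nuclei, positivity set by a 95% cutoff from untreated-well intensities. Readout by imaging immunofluorescence (anti-Ub-PCNA, DAPI nuclear mask) after methanol fixation. Compound exposure: 3 h at 37° C, 0.3% DMSO final, on cells plated overnight.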

USP1/UAF1 enzyme = USP1/UAF1 enzyme (Homo sapiens, UniProt O94782); assay: USP1/UAF1 deubiquitination assay (ubiquitin-rhodamine 110 substrate); format: biochemical; conditions: read-out: USP1 IC50 (Ub-Rho)
Chain of USP1/UAF1 enzyme (O94782 whole entry): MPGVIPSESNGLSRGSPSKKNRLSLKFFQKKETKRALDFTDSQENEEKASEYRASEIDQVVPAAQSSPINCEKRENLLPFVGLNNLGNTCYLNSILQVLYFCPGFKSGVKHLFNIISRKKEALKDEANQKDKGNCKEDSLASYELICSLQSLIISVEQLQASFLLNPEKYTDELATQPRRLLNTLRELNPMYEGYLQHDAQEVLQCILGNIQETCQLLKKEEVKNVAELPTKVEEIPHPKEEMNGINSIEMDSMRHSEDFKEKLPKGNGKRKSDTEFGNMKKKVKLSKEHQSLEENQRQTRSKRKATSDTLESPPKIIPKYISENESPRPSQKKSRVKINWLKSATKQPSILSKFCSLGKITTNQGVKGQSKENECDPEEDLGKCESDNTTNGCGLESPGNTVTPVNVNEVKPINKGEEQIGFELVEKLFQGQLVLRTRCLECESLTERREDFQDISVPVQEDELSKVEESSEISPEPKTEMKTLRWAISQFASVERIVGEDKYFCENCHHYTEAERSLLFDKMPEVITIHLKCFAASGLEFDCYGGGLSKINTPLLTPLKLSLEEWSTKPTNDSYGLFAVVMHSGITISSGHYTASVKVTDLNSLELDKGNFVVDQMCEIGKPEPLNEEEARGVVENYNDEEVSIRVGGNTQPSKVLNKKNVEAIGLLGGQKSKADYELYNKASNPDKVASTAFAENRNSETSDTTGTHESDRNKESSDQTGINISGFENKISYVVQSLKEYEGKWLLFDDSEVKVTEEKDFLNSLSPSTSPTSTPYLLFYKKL
Chain of USP1/UAF1 enzyme (Q8TAF3 whole entry partner): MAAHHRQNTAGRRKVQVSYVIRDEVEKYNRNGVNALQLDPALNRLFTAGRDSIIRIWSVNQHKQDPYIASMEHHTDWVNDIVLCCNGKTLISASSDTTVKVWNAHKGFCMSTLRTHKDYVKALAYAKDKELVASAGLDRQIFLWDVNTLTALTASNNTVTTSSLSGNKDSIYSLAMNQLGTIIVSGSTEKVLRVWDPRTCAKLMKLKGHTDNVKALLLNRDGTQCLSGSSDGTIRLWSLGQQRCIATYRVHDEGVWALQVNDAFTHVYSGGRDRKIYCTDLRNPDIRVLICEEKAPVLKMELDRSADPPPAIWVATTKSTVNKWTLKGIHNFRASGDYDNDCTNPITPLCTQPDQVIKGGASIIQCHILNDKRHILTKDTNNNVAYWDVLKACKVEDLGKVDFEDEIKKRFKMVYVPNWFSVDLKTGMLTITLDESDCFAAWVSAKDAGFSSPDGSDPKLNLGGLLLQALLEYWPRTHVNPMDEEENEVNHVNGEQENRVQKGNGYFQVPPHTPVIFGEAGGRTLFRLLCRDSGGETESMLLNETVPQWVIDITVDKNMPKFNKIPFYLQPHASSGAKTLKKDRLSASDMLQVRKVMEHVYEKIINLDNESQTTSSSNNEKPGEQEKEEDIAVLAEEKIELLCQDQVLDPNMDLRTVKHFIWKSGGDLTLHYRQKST
Procedure, shortened: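 Cleavage of 150 nM ubiquitin-rhodamine 110 by 0.05 nM USP1/UAF1 was followed as fluorescence (Ex480/Em540, kinetic, 30 min) in Tris-HCl pH 7.8 buffer with EDTA, BSA, DTT and Tween-20. Compounds, top 10 μM, were preincubated with enzyme 10 min; % inhibition against no-enzyme and DMSO wells gave four-parameter IC50s.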

[2] = Liver microsomal metabolic stability, rat liver microsomes (RLM); conditions: rat, liver microsomes, t1/2 (min) in RLM, 1 μM compound, 1 mg/mL microsomes, NADPH
[3] = ADME solubility determination in PBS at pH 2.0 and pH 7.4; format: physicochemical; conditions: phosphate buffered saline, 25 °C, thermodynamic from solid
Procedure, shortened: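 Solubility was read by LC-MS/MS on centrifuged supernatants, calibrated to a known-concentration standard and corrected for dilution. Compound, dried down from 10 mM DMSO stock, was equilibrated 24 h at 25° C with shaking in PBS at pH 2.0 or pH 7.4.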

[4] = Liver microsomal metabolic stability, human liver microsomes (HLM); conditions: human, liver microsomes
[5] = pH 2, aqueous buffer, PBS pH 2.0, 25° C., read-out: Solubility at pH 2.0
[6] = pH 7.4, aqueous buffer, PBS pH 7.4, 25° C., read-out: Solubility at pH 7.4

| IC50 [1] [nM] | IC50 (USP1/UAF1 enzyme) [nM] | half-life at 1 μM [2] [min] | solubility at 24 h [3, 5] [µM] | solubility at 24 h [3, 6] [µM] | half-life at 1 μM [4] [min] | SMILES |
| --- | --- | --- | --- | --- | --- | --- |
| 100 to 500 | < 100 | > 25 | < 10 | < 10 | > 25 | COc1ncnc(C2CC2)c1-c1cc2n(n1)CCC(=O)N2Cc1ccc(-c2nc(C(F)(F)F)cn2C(C)C)cc1 [Example 72] |
| 100 to 500 | < 100 | < 25 | < 10 | < 10 | < 25 | Cc1cnn(C(C)C)c1-c1cc2n(n1)CCC(=O)N2Cc1ccc(-c2nc(C(F)(F)F)cn2C(C)C)cc1 [Example 73] |
| < 100 | < 100 | > 25 | < 10 | < 10 | > 25 | CCn1cc(C(F)(F)F)nc1-c1ccc(CN2C(=O)CCn3nc(-c4c(OC)ncnc4C4CC4)cc32)cc1F [Example 78] |
| < 100 | < 100 | > 25 | < 10 | < 10 | > 25 | CC(C)n1ncc(Cl)c1-c1cc2n(n1)CCC(=O)N2Cc1ccc(-c2nc(C(F)(F)F)cn2CCF)cc1 [Example 79] |
| 100 to 500 | < 100 | > 25 | < 10 | < 10 | > 25 | COc1ncnc(C2CC2)c1-c1cc2n(n1)CCC(=O)N2Cc1ccc(-n2nc(C(F)(F)F)cc2OC)cc1 [Example 80] |
| 100 to 500 | < 100 | > 25 | < 10 | < 10 | > 25 | Cc1cc(C(F)(F)F)nn1-c1ccc(CN2C(=O)CCn3nc(-c4c(Cl)cnn4C(C)C)cc32)cc1 [Example 86] |
| < 100 | < 100 | > 25 | < 10 | < 10 | > 25 | CC(C)n1cc(C(F)(F)F)nc1-c1ccc(CN2C(=O)CCn3nc(-c4c(Cl)cnn4C(C)C)cc32)cc1 [Example 91] |
| < 100 | < 100 | > 25 | < 10 | < 10 | > 25 | COc1cc(C(F)(F)F)nn1-c1ccc(CN2C(=O)CCn3nc(-c4c(Cl)cnn4C(C)C)cc32)cc1 [Example 96] |
| < 100 | < 100 | > 25 | < 10 | < 10 | > 25 | CCn1cc(C(F)(F)F)nc1-c1ccc(CN2C(=O)CCn3nc(-c4c(Cl)cnn4C(C)C)cc32)cc1 [Example 97] |
| < 100 | < 100 | > 25 | < 10 | < 10 | > 25 | CC(C)n1ncc(Cl)c1-c1cc2n(n1)CCC(=O)N2Cc1ccc(-c2nc(C(F)(F)F)cn2C)cc1 [Example 98] |
| 100 to 500 | < 100 | > 25 | < 10 | < 10 | > 25 | COc1ncnc(C2CC2)c1-c1cc2n(n1)CCC(=O)N2Cc1ccc(-n2nc(C(F)(F)F)cc2C)c(F)c1 [Example 103] |
| 100 to 500 | < 100 | > 25 | < 10 | < 10 | > 25 | Cc1cc(C(F)(F)F)nn1-c1ccc(CN2C(=O)CCn3nc(-c4c(Cl)cnn4C(C)C)cc32)cc1F [Example 104] |
| < 100 | < 100 | > 25 | ≥ 10 | < 10 | > 25 | COc1cc(CN2C(=O)CCn3nc(-c4c(OC)ncnc4C4CC4)cc32)ccc1-c1nc(C(F)(F)F)cn1C(C)C [Example 108] |
| < 100 | < 100 | > 25 | < 10 | < 10 | > 25 | COc1cc(CN2C(=O)CCn3nc(-c4c(Cl)cnn4C(C)C)cc32)ccc1-c1nc(C(F)(F)F)cn1C(C)C [Example 109] |
| 100 to 500 | < 100 | > 25 | < 10 | < 10 | > 25 | CCn1cc(C(F)(F)F)nc1-c1ccc(CN2C(=O)CCn3nc(-c4c(Cl)cnn4C(C)C)cc32)cn1 [Example 111] |
| < 100 | < 100 | < 25 | < 10 | < 10 | < 25 | CCn1cc(C(F)(F)F)nc1-c1ccc(C(C)N2C(=O)CCn3nc(-c4c(Cl)cnn4C(C)C)cc32)cc1 (stereo not drawn) [Example 113] |
| 100 to 500 | < 100 | < 25 | ≥ 10 | ≥ 10 | > 25 | CCn1cc(C(F)(F)F)nc1-c1ccc(C(C)N2C(=O)CCn3nc(-c4c(OC)ncnc4C4CC4)cc32)cc1 (stereo not drawn) [Example 114] |
| < 100 | < 100 | > 25 | < 10 | < 10 | > 25 | CCOc1cc(C(F)(F)F)nn1-c1ccc(CN2C(=O)CCn3nc(-c4c(Cl)cnn4C(C)C)cc32)cc1 [Example 115] |
| 100 to 500 | < 100 | > 25 | < 10 | < 10 | > 25 | CC(C)n1ncc(Cl)c1-c1cc2n(n1)CCC(=O)N2Cc1ccc(-c2cn(C)c(C(F)(F)F)n2)cc1 [Example 116] |
| < 100 | < 100 | < 25 | < 10 | < 10 | < 25 | CCn1cc(Cl)nc1-c1ccc(CN2C(=O)CCn3nc(-c4c(Cl)cnn4C(C)C)cc32)cc1 [Example 118] |
| < 100 | < 100 | < 25 | < 10 | < 10 | > 25 | CCn1cc(C(F)(F)F)nc1-c1ccc(C(C)N2C(=O)CCn3nc(-c4c(Cl)cnn4C(C)C)cc32)cc1F (stereo not drawn) [Example 119] |

| SMILES | IC50 [1] [nM] | IC50 (USP1/UAF1 enzyme) [nM] | half-life at 1 μM [2] [min] | solubility at 24 h [3, 5] [µM] | solubility at 24 h [3, 6] [µM] | half-life at 1 μM [4] [min] |
| --- | --- | --- | --- | --- | --- | --- |
| COc1cccc(C)c1-c1cc2n(n1)CCCN2Cc1ccc(-c2nc(C(F)(F)F)cn2C)cc1 [Example 74, 2-(2-methoxy-6-methylphenyl)-4-(4-(1-methyl-4-(trifluoromethyl)-1H-imidazol-2-yl)benzyl)-4,5,6,7-tetrahydropyrazolo[1,5-α]pyrimidine] | > 500 | < 100 | < 25 | ≥ 10 | < 10 | < 25 |
| COc1cccc(C)c1-c1cc2n(n1)CCC(=O)N2Cc1ccc(-c2nc(C(F)(F)F)cn2C)cc1 [Example 75, 2-(2-methoxy-6-methylphenyl)-4-(4-(1-methyl-4-(trifluoromethyl)-1H-imidazol-2-yl)benzyl)-6,7-dihydropyrazolo[1,5-α]pyrimidin-5(4H)-one] | 100 to 500 | < 100 | < 25 | ≥ 10 | < 10 | < 25 |
